Measurements taken from PubChem BioAssay AID1963831 (Molecular Pharmacology Branch, DTP, NCI, 2024).

Tested on: 889142-216-R-J1-PDC complex spheroid viability
Assay: Anticancer human tumor 889142-216-R-J1-PDC patient-derived bladder carcinoma cell line growth inhibition [POLQ]
Settings: for IC50: curve of first compound; for viability, T/C: stronger effect = lower value; active = viability on the fitted dose curve at most 10% of control; inactive = the rest
Experimental: Multicellular complex tumor spheroid response to Polymerase (POL) inhibitors (novobiocin, ART-558, RP6685) in combination with a variety of drugs and investigational agents in selected tumor cell lines
The POL inhibitors (novobiocin, ART-558, and RP6685) were evaluated both individually and in combination with standard of care and investigational anticancer small molecules within a complex spheroid model of solid tumors. . Complex spheroids include a stromal component modeled by human endothelial cells (HUVEC) and fibroblasts modeled by human mesenchymal stem cells (MSCs). The concentration ranges selected for each drug and investigational agent were based upon clinically achievable concentrations if the clinical Cmax of the agent was known.
Compounds. The drugs and investigational agents: novobiocin (NSC847541), ART-558 (NSC835418), RP-6685 (NSC848927), peposertib (NSC802822), ceralasertib (NSC780249), elimusertib (NSC800525), camonsertib (NSC841442), AZD-1390 (NSC803789), olaparib (NSC753686), talazoparib (NSC767125), rucaparib (NSC756644), sotorasib (NSC818433), MRTX-1133 (NSC836407), SN-38 (NSC673596), topotecan (NSC609699), epotoside (NSC141540), doxorubicin (NSC123127), gemcitabine (NSC613327), 5-fluorouracil (NSC19893), paclitaxel (NSC125973), vemurafenib (NSC761431), MSA-2 (NSC828583), SN-011 (NSC837082), adavosertib (NSC754352), prexasertib (NSC758257), carboplatin (NSC241240) and oxaliplatin (NSC266046), were obtained from the National Cancer Institute (NCI) Developmental Therapeutics Program Chemical Repository (21). The FDA-approved anticancer drug set is available from the Developmental Therapeutics Program at https://dtp.cancer.gov/organization/dscb/obtaining/. […] The stock solutions were prepared in dimethyl sulfoxide (DMSO, Sigma-Aldrich, St. Louis, MO, cat. D2650), except for the platinum compounds which were prepared in saline (Quality Biological, Gaithersburg, MD, cat. 114-055-101), at 800-fold the tested concentration and stored at -70 degrees C prior to their use. All drugs and investigational agents were tested over a range starting from a high concentration at or near the clinical Cmax and decreasing in half-log increments. If the clinical Cmax for an agent had not been determined, the highest concentration tested was 10 microM, except for SN-38, which was tested at a high concentration of 1 microM.
Cell Culture. All cells were maintained in an incubator at 37 degrees C and 5% CO2 with 95% humidity. The PDC lines were cultured according to standard operating procedures established by the NCI PDMR (https://pdmr.cancer.gov). Table 3 of the manuscript, lists the cell lines along with the number of the three cell types plated to form the mct-spheroids and media for tumor cell growth. After thawing, all PDC lines, except 997537-175-T-J1-PDC and 415267-285-R-J2-PDC, were cultured in Matrigel-coated flasks prepared with a working solution of 1X Ham's F-12 nutrient mix, without supplementation (Thermo Fisher Scientific, cat. 11765054), 100 U/mL penicillin-streptomycin (Thermo Fisher Scientific, cat. 15140122), and 2.5% Matrigel (Corning Inc., Corning, NY, cat. 354248) for the first three passages. The two PDC lines 997537-175-T-J1-PDC and 415267-285-R-J2-PDC were cultured on uncoated flasks. The 857933-349-R-J2-PDC line was cultured in 6C/Colon 1B media containing advanced DMEM/F-12 (Thermo Fisher Scientific, cat. 12634028), 10 mM HEPES (Thermo Fisher Scientific, cat. 15630080), 1X GlutaMAX supplement (Thermo Fisher Scientific, cat. 35050061), 0.1 mg/mL primocin (InvivoGen, San Diego, CA, cat. ant-pm-2), 10% defined fetal bovine serum, heat inactivated (HyClone Laboratories Inc., Logan, UT, cat. SH30070.03HI), 50% L-WRN conditioned media (ATCC, cat. CRL-3276), 1.25 mM N-Acetyl-L-cysteine (Sigma-Aldrich, cat. A9165), 10 mM nicotinamide (Sigma-Aldrich, cat. N0636), 1X B-27 supplement (Thermo Fisher Scientific, cat. 17504044), 1X N-2 supplement (Thermo Fisher Scientific, cat. […]
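Also: spheroids exposed to compounds for seven days.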

COc1cccc(OCCCN)c1-c1cc(Nc2cnc(C#N)cn2)n[nH]1 + Cc1cccc(N(C)C(=O)C2C(O)CCN2c2nc(C)cc(C(F)(F)F)c2C#N)c1
93.9 nM: IC50 (second compound 0.0316 µM)
143 nM: IC50 (second compound 3.16 µM)
29.2 nM: IC50 (second compound 0.316 µM)
83 nM: IC50 (second compound 0.1 µM)
27.4 nM: IC50 (second compound 10 µM)
35.6 nM: IC50 (second compound 1 µM)
inactive: viability, T/C (second compound 0.0316 µM, first compound 0.00316 µM) 94.4% | viability, T/C (second compound 0.0316 µM, first compound 0.01 µM) 65.8% | viability, T/C (second compound 0.0316 µM, first compound 0.0316 µM) 53.7% | viability, T/C (second compound 0.0316 µM, first compound 0.1 µM) 52.1% | viability, T/C (second compound 0.0316 µM, first compound 0.316 µM) 49% | viability, T/C (second compound 0.0316 µM, first compound 1 µM) 45% | viability, T/C (second compound 0.1 µM, first compound 0.00316 µM) 93.2% | viability, T/C (second compound 0.1 µM, first compound 0.01 µM) 95.6% | viability, T/C (second compound 0.1 µM, first compound 0.0316 µM) 59.3% | viability, T/C (second compound 0.1 µM, first compound 0.1 µM) 52.3% | viability, T/C (second compound 0.1 µM, first compound 0.316 µM) 49.4% | viability, T/C (second compound 0.1 µM, first compound 1 µM) 42.9% | viability, T/C (second compound 0.316 µM, first compound 0.00316 µM) 118% | viability, T/C (second compound 0.316 µM, first compound 0.01 µM) 62.3% | viability, T/C (second compound 0.316 µM, first compound 0.0316 µM) 48.2% | viability, T/C (second compound 0.316 µM, first compound 0.1 µM) 50.6% | viability, T/C (second compound 0.316 µM, first compound 0.316 µM) 50.5% | viability, T/C (second compound 0.316 µM, first compound 1 µM) 39.7% | viability, T/C (second compound 1 µM, first compound 0.00316 µM) 110% | viability, T/C (second compound 1 µM, first compound 0.01 µM) 62% | viability, T/C (second compound 1 µM, first compound 0.0316 µM) 50.7% | viability, T/C (second compound 1 µM, first compound 0.1 µM) 51.7% | viability, T/C (second compound 1 µM, first compound 0.316 µM) 56.8% | viability, T/C (second compound 1 µM, first compound 1 µM) 38.2% | viability, T/C (second compound 3.16 µM, first compound 0.00316 µM) 81% | viability, T/C (second compound 3.16 µM, first compound 0.01 µM) 73.6% | viability, T/C (second compound 3.16 µM, first compound 0.0316 µM) 63.8% | viability, T/C (second compound 3.16 µM, first compound 0.1 µM) 46.2% | viability, T/C (second compound 3.16 µM, first compound 0.316 µM) 49.8% | viability, T/C (second compound 3.16 µM, first compound 1 µM) 51.8% | viability, T/C (second compound 10 µM, first compound 0.00316 µM) 74.8% | viability, T/C (second compound 10 µM, first compound 0.01 µM) 73.5% | viability, T/C (second compound 10 µM, first compound 0.0316 µM) 46.6% | viability, T/C (second compound 10 µM, first compound 0.1 µM) 48.8% | viability, T/C (second compound 10 µM, first compound 0.316 µM) 42.7% | viability, T/C (second compound 10 µM, first compound 1 µM) 43.9%
